The target of one data set is T1, TRα (Homo sapiens, UniProt P10827).
T1 construct: 5 μL of 4×TR beta/alfa-LBD; purchased Invitrogen PV4687
As to the kind of experiment: LanthaScreen TR-FRET Thyroid Receptor alfa Coactivator Assay (in vitro binding activity). Particulars: TR alfa-LBD. As to the method: (§1) 2. Detection of the Binding Activity of the Compound of the Present Invention to TRα or TRβ In Vitro
(§2) Test Materials • LanthaScreen TR-FRET Thyroid Receptor beta Coactivator Assay kit was purchased from Invitrogen, Cat. No. PV4686; • LanthaScreen TR-FRET Thyroid Receptor alfa Coactivator Assay kit was purchased from Invitrogen, Cat. No. PV4687.
(§3) The method was experimented with LanthaScreen TR-FRET Thyroid Receptor beta/alfa Coactivator Assay kit. The test compound was dissolved in DMSO and diluted 3 times to a total of 10 concentrations, and then diluted with TR-FRET Coregulator Buffer C in the kit to form a solution containing 2% DMSO, 10 μL of the solution containing 2% DMSO was taken into a 384-well plate, then 5 μL of 4×TR beta/alfa-LBD, 5 μL of a mixture containing 0.4 μM fluorescein-SRC2-2 and 8 nM Tb anti-GST antibody were added into each well, mixed thoroughly, and incubated at room temperature for 1 h in the dark. After 1 h, BMG LABTECH's PHERAstar FSX microplate reader was used to read the fluorescence value (RFU) at […]. The TR-FRET ratio was calculated by dividing the emission signal at 520 nm by the emission signal at 495 nm. Graph Pad Prism 5 software was used to draw the curve and calculate the EC50 value. The in vitro binding activity test results of some of the compounds of the examples of the present invention are shown in Table 1 below.
In general terms: Time-resolved FRET reads energy transfer from a long-lived donor to a nearby acceptor.

Another data set concerns the target T2, TRβ (Homo sapiens, UniProt P10828).
T2 construct: 5 μL of 4×TR beta/alfa-LBD; purchased Invitrogen PV4686
T2 sequence (P10828 217-461 limits assumed): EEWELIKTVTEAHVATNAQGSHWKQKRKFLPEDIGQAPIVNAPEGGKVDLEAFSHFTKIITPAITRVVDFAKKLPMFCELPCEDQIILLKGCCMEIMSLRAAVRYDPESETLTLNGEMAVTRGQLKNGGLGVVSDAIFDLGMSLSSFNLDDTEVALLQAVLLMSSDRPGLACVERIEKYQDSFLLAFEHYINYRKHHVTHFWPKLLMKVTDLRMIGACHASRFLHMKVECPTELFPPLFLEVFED
As to the kind of experiment: LanthaScreen TR-FRET Thyroid Receptor beta Coactivator Assay (in vitro binding activity). Particulars: TR beta-LBD. As to the method:
as §1, §2, §3

Data set [1] can be described thus: Pharmacokinetic determination in SD rats (i.v. and i.g.). The format is in vivo. Particulars: for AUC(0-inf) / AUC(0-t) / Cmax / clearance / half-life / Vd: male, Sprague-Dawley (SD), rat, plasma; for Vd: read-out: VSS. The text has this: Test purposes: The following method was used to determine the pharmacokinetics of the compound of the present invention.
Test Materials: • Experimental reagents and test samples used: Propranolol (internal standard), methanol, ammonium acetate, K2EDTA (potassium ethylenediaminetetraacetic acid), formic acid, acetonitrile MTBE (methyl tert-butyl ether). KolliphorHS15 (macrogol 12 hydroxystearate), DMSO (dimethyl sulfoxide) are commercially available • SD rats: male, 180-220 g, 7-8 weeks old, purchased from Human Slack Experimental Animal Co., Ltd.
Each test sample prepared was completely dissolved in a mixture of 5% DMSO+5% KolliphorHS 15+90% Saline according solubility property thereof.
Samples were processed by liquid-liquid extraction, chromatographically separated, quantitatively analyzed by multiple reaction ion monitoring (MRM) on a triple quadrupole tandem mass spectrometer, and the concentration of the results was calculated by instrument quantitative software.
30 μL of plasma sample was precisely pipetted, added with 250 μL of internal standard, and vortexed to mix thoroughly. Plasma samples was extracted once with 1 mL of MTBE, centrifuged at 13,000 rpm for 2 min at 4° C. 800 μL of the supernatant was sucked out, evaporated to dryness in a 96-well nitrogen blower, and the residue was reconstituted with 150 μL of methanol/water (v/v=50/50), vortexed to mix, and injected with an injection volume of 8 μL.
LC/MS/MS method was used to determine the content of the test compound in rat plasma after administration of different compounds.
Pharmacokinetic parameters were calculated using a noncompartmental method by WinNonLin 6.1 software.

SMILES strings stand for the structures.

In general, EC50 refers to the concentration giving half of the maximal effect. The term AUC(0-inf) denotes total exposure, with the tail of the curve extrapolated. A lower AUC(0-inf) goes with low exposure. As a reminder, the AUC(0-t) is the area under the concentration-time curve up to a stated or last time point. A higher AUC(0-t) goes with high exposure. As a reminder, the Cmax is the highest concentration seen after dosing. The term clearance denotes the rate of elimination divided by the concentration. Lower therefore signals inefficient removal. As a reminder, the half-life is how long it takes for the measured level to halve.

T1 sequence (P10827 163-410 isoform P10827-2 limits assumed, other chains not shown): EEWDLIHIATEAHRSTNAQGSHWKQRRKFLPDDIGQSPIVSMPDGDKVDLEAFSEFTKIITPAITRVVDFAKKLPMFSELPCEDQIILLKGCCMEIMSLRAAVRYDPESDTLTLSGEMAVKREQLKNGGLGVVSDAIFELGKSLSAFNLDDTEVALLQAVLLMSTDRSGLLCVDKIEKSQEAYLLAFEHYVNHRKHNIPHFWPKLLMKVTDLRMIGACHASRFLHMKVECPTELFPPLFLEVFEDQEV

`O=C1c2ccc(Oc3c(Cl)cc(-n4ncc(=O)[nH]c4=O)cc3Cl)cc2CCN1Cc1cccc(C(F)(F)F)c1` [Example 34, 2-(3,5-dichloro-4-((2-(3-(trifluoromethyl)benzyl)-1-oxo-1,2,3,4-tetrahydroisoquinolin-6-yl)oxy)phenyl)-1,2,4-triazine-3,5(2H,4H)-dione] registered an EC50 at TRα of over 100 µM. For the same molecule, it took 0.021 µM to reach a half-maximal effect at TRβ (EC50). The molecule also registered a F in data set [1] (ig, 5 mg/kg) of 111%. In data set [1] (iv, 1 mg/kg), this molecule returned an AUC(0-inf) of 22400 ng·h/mL, an exposure AUC(0-t) of 18800 ng·h/mL, a Cmax of 3020 ng/mL and a clearance of 0.744 mL/min/kg. Also, in data set [1] (iv, 1 mg/kg), the half-life is 592 min and the Vd is 0.531 L/kg. Moreover, in data set [1] (po, ig, 5 mg/kg), the AUC(0-inf) was 124000 ng·h/mL, the exposure AUC(0-t) was determined as 110000 ng·h/mL, the Cmax stood at 8460 ng/mL and the half-life was 460 min.

Molecule `O=C1c2ccc(Oc3c(Cl)cc(-n4ncc(=O)[nH]c4=O)cc3Cl)cc2CCN1Cc1cccnc1` [Example 45, 2-(3,5-dichloro-4-((1-oxo-2-(pyridin-3-ylmethyl)-1,2,3,4-tetrahydroisoquinolin-6-yl)oxy)phenyl)-1,2,4-triazine-3,5(2H,4H)-dione] displayed a concentration giving a half-maximal response (EC50) on TRα of over 100 µM. For the same molecule, the EC50 on TRβ was 0.061 µM. Further, the F in data set [1] (ig, 5 mg/kg) came to 163.9%. In data set [1] (iv, 1 mg/kg), this molecule showed an AUC(0-inf) of 2510 ng·h/mL, an area under the curve AUC(0-t) of 2460 ng·h/mL, a peak concentration (Cmax) of 1780 ng/mL and a clearance of 6.65 mL/min/kg. Also, in data set [1] (iv, 1 mg/kg), the half-life was 69 min and the Vd was 0.57 L/kg. In data set [1] (po, ig, 5 mg/kg), the area under the curve AUC(0-inf) was 20600 ng·h/mL, the AUC(0-t) came out at 20300 ng·h/mL, the Cmax is 5320 ng/mL and the half-life is 248 min.

`O=C1c2ccc(Oc3c(Cl)cc(-n4ncc(=O)[nH]c4=O)cc3Cl)cc2CCN1Cc1ccc(C(F)(F)F)cc1` [Example 29, 2-(3,5-dichloro-4-((1-oxo-2-(4-(trifluoromethyl)benzyl)-1,2,3,4-tetrahydroisoquinolin-6-yl)oxy)phenyl)-1,2,4-triazine-3,5(2H,4H)-dione] gave a concentration giving a half-maximal response (EC50) on TRα of over 100 µM. The molecule also yielded an EC50 at TRβ of 0.091 µM. In data set [1] (ig, 5 mg/kg), this molecule came in with an F of 66.2%. In addition, in data set [1] (iv, 1 mg/kg), the AUC(0-inf) is 56000 ng·h/mL, the AUC(0-t) is 48700 ng·h/mL, the peak concentration (Cmax) was 4270 ng/mL and the clearance turned out to be 0.297 mL/min/kg. For the same molecule, in data set [1] (iv, 1 mg/kg), the half-life is 508 min and the Vd turned out to be 0.194 L/kg. In data set [1] (po, ig, 5 mg/kg), this molecule gave an AUC(0-inf) of 236000 ng·h/mL, an AUC(0-t) of 159000 ng·h/mL, a Cmax of 10300 ng/mL and a half-life of 846 min.

`O=C1c2ccc(Oc3c(Cl)cc(-n4ncc(=O)[nH]c4=O)cc3Cl)cc2CCN1Cc1cccc(OC(F)(F)F)c1` [Example 43, 2-(3,5-dichloro-4-((1-oxo-2-(3-(trifluoromethoxy)benzyl)-1,2,3,4-tetrahydroisoquinolin-6-yl)oxy)phenyl)-1,2,4-triazine-3,5(2H,4H)-dione] registered a 50% effective concentration (EC50) on TRα of over 100 µM. Also, the response on TRβ was half-maximal at 0.031 µM (EC50). In data set [1] (ig, 5 mg/kg), this molecule returned an F of 68.4%. In data set [1] (iv, 1 mg/kg), this molecule showed an AUC(0-inf) of 47700 ng·h/mL, an area under the curve AUC(0-t) of 39800 ng·h/mL, a Cmax of 3410 ng/mL and a clearance of 0.349 mL/min/kg. In data set [1] (iv, 1 mg/kg), the half-life is 571 min and the Vd amounted to 0.26 L/kg. Further, in data set [1] (po, ig, 5 mg/kg), the area under the curve AUC(0-inf) came out at 212000 ng·h/mL, the AUC(0-t) stood at 134000 ng·h/mL, the Cmax is 8120 ng/mL and the half-life was 942 min.

In the case of `O=C1c2ccc(Oc3c(Cl)cc(-n4ncc(=O)[nH]c4=O)cc3Cl)cc2CCN1c1ccccc1F` [Example 44, 2-(3,5-dichloro-4-((2-(2-fluorophenyl)-1-oxo-1,2,3,4-tetrahydroisoquinolin-6-yl)oxy)phenyl)-1,2,4-triazine-3,5(2H,4H)-dione], at TRα, the EC50 was over 100 µM. The EC50 on TRβ came to 0.0097 µM. The molecule also registered a F in data set [1] (ig, 5 mg/kg) of 133.3%. In addition, in data set [1] (iv, 1 mg/kg), the AUC(0-inf) turned out to be 2150 ng·h/mL, the AUC(0-t) turned out to be 2110 ng·h/mL, the highest level (Cmax) was 5430 ng/mL and the clearance stood at 7.74 mL/min/kg. In addition, in data set [1] (iv, 1 mg/kg), the half-life was 127 min and the Vd is 0.4 L/kg. Besides, in data set [1] (po, ig, 5 mg/kg), the AUC(0-inf) is 14300 ng·h/mL, the AUC(0-t) worked out at 13900 ng·h/mL, the highest concentration (Cmax) was 9030 ng/mL and the half-life is 98.4 min.

`Cc1ccc(CN2CCc3cc(Oc4c(Cl)cc(-n5ncc(=O)[nH]c5=O)cc4Cl)ccc3C2=O)cc1` [Example 21, 2-(3,5-dichloro-4-((2-(4-methylbenzyl)-1-oxo-1,2,3,4-tetrahydroisoquinolin-6-yl)oxy)phenyl)-1,2,4-triazine-3,5(2H,4H)-dione]: the EC50 on TRα was over 100 µM. At TRβ, this molecule had a concentration for a half-maximal effect (EC50) of 0.019 µM. In data set [1] (ig, 5 mg/kg), this molecule yielded an F of 81.9%. In data set [1] (iv, 1 mg/kg), this molecule had an area under the curve AUC(0-inf) of 1020 ng·h/mL, an exposure AUC(0-t) of 1020 ng·h/mL, a Cmax of 2760 ng/mL and a clearance of 16.3 mL/min/kg. In addition, in data set [1] (iv, 1 mg/kg), the half-life is 61.2 min and the Vd is 0.308 L/kg. In data set [1] (po, ig, 5 mg/kg), this molecule gave a total exposure AUC(0-inf) of 4180 ng·h/mL, an area under the curve AUC(0-t) of 4160 ng·h/mL, a Cmax of 4730 ng/mL and a half-life of 86.4 min.

In the case of `O=C1c2ccc(Oc3c(Cl)cc(-n4ncc(=O)[nH]c4=O)cc3Cl)cc2CCN1CC1CCOCC1` [Example 23, 2-(3,5-dichloro-4-((1-oxo-2-((tetrahydro-2H-pyran-4-yl)methyl)-1,2,3,4-tetrahydroisoquinolin-6-yl)oxy)phenyl)-1,2,4-triazine-3,5(2H,4H)-dione], the EC50 on TRα turned out to be 0.386 µM; on TRβ it was 0.013 µM.

In the case of `N#Cc1nn(-c2cc(Cl)c(Oc3ccc4c(c3)CCN(c3ncccn3)C4=O)c(Cl)c2)c(=O)[nH]c1=O` [Example 50f, 2-(3,5-dichloro-4-((1-oxo-2-(pyrimidin-2-yl)-1,2,3,4-tetrahydroisoquinolin-6-yl)oxy)phenyl)-3,5-dioxo-2,3,4,5-tetrahydro-1,2,4-triazine-6-carbonitrile], the EC50 at TRα stood at 2.62 µM; on TRβ, 0.213 µM.

For the molecule `O=C1c2ccc(Oc3c(Cl)cc(-n4ncc(=O)[nH]c4=O)cc3Cl)cc2CCN1c1ccncc1` [Example 48, 2-(3,5-dichloro-4-((1-oxo-2-(pyridin-4-yl)-1,2,3,4-tetrahydroisoquinolin-6-yl)oxy)phenyl)-1,2,4-triazine-3,5(2H,4H)-dione], the values for the EC50 at TRα and on TRβ were 0.558 µM and 0.065 µM, respectively.

In the case of `Cc1ccc(N2CCc3cc(Oc4c(Cl)cc(-n5nc(C#N)c(=O)[nH]c5=O)cc4Cl)ccc3C2=O)cc1` [Example 27, 2-(3,5-dichloro-4-((1-oxo-2-(p-tolyl)-1,2,3,4-tetrahydroisoquinolin-6-yl)oxy)phenyl)-3,5-dioxo-2,3,4,5-tetrahydro-1,2,4-triazine-6-carbonitrile], the concentration for a half-maximal effect (EC50) at TRα was over 100 µM; on TRβ, 0.14 µM.

In the case of `CCOCN1CCc2cc(Oc3c(Cl)cc(-n4nc(C#N)c(=O)[nH]c4=O)cc3Cl)ccc2C1=O` [Example 4, 2-(3,5-dichloro-4-((2-(ethoxymethyl)-1-oxo-1,2,3,4-tetrahydroisoquinolin-6-yl)oxy)phenyl)-3,5-dioxo-2,3,4,5-tetrahydro-1,2,4-triazine-6-carbonitrile], the figures for the EC50 on TRα and on TRβ were 0.21 µM and 0.018 µM, respectively.

The record behind these values is patent US20240025875A1, “A COMPOUND AS A THYROID HORMONE BETA RECEPTOR AGONIST AND USE THEREOF” (SUNSHINE LAKE PHARMA CO., LTD., priority 2020, published 2024).
